# Test results as given in US12643922B2 (VIRGINIA COMMONWEALTH UNIVERSITY, priority 2021, dated 2026).
# Where two headings read alike, the source gives them in different places.
# How the values were obtained:
# UA sulfation = experiment: Inhibition of UA sulfation (formation of UA-sulfate by HPLC-MS); type: biochemical; details: UA concentration 2 μM, triplicate
# Description: FIG. 5. IC50 of glycyrrhetinic acid. UA concentration was 2 μM. Determination was done in triplicate.
# Table 1. IC50 values for several inhibitors of UA sulfation. UA concentration was 2 μM. Determinations were done in triplicate, and formation of UA-sulfate was determined by HPLC-MS followed by nonlinear regression with the Hill equation.
# [1] = colour and water solubility with time
# [2] = Solubility of ursolic acid salts in hydrophilic solvents (clear saturated solution)
# Description: The salts were weighed, mixed with the solvent, and incubated to reach clear saturated solution (37° C. for water and ethanol; 55° C. for PEG 400 and glycerol).
# [3] = cited from earlier work
# [4] = cited from earlier work; remark: listed apart in the source
# [5] = background statement; cited from earlier work
Compound,Hill slope (UA sulfation; Hill equation),"IC50 (UA sulfation; Hill equation, read-out: IC50)",further results
CC(=O)O[C@H]1CC[C@@]2(C)C(=CC(=O)[C@@H]3[C@@H]2CC[C@]2(C)C(=O)CC[C@@H]32)C1 [7-oxo-DHEA acetate],1.2 ± 0.06,20.2 ± 3.6 µM,
C[C@]12CC[C@H](O)CC1=CC(=O)C1C2CC[C@]2(C)C(=O)CCC12 (some centres unmarked) [7-oxo-DHEA],1.2 ± 0.4,38.1 ± 1.2 µM,
"C[C@]12CC[C@H](O)CC1=CC[C@@H]1[C@@H]2CC[C@]2(C)C(=O)CC[C@@H]12 [DHEA, dehydroepiandrosterone]",1.4 ± 0.1,1.2 ± 0.1 µM,
CC1(C)[C@@H](O)CC[C@]2(C)[C@H]3C(=O)C=C4[C@@H]5C[C@@](C)(C(=O)O)CC[C@]5(C)CC[C@@]4(C)[C@]3(C)CC[C@@H]12 [Glycyrrhetinic acid],4.8 ± 3.5,14 ± 0.2 µM,"IC50 (UA sulfation; 95% CI, read-out: IC50 (FIG. 5)): 18.6 µM"
C=C1C[C@@]23CC[C@H]4[C@@](C)(CCC[C@@]4(C)C(=O)O)[C@@H]2CC[C@]1(O)C3 [Steviol],1.4 ± 0.1,11.8 ± 1.8 µM,
C[C@H]1CC[C@]2(NC1)O[C@H]1C[C@H]3[C@@H]4CC[C@H]5C[C@@H](O)CC[C@]5(C)[C@H]4CC[C@]3(C)[C@H]1[C@@H]2C [Tomatidine],0.5 ± 0.03,84.8 ± 5.1 µM,
"C[C@H]1[C@H](C)CC[C@]2(C(=O)O)CC[C@]3(C)C(=CC[C@@H]4[C@@]5(C)CC[C@H](O)C(C)(C)[C@@H]5CC[C@]43C)[C@H]12 [UAdC-O, ursolic acid dicholine complex]",,,stability [1]: unstable
"C[C@H]1[C@H](C)CC[C@]2(C(=O)O)CC[C@]3(C)C(=CC[C@@H]4[C@@]5(C)CC[C@H](O)C(C)(C)[C@@H]5CC[C@]43C)[C@H]12 [UAdC-W, ursolic acid dicholine hydroxide hydrated complex]",,,stability [1]: stable
"C[C@H]1[C@H](C)CC[C@]2(C(=O)[O-])CC[C@]3(C)C(=CC[C@@H]4[C@@]5(C)CC[C@H](O)C(C)(C)[C@@H]5CC[C@]43C)[C@H]12.C[N+](C)(C)CCO [UAmC, monocholine ursolate]",,,"PEG400 solubility compared to UAK ([2]; PEG400, data not shown): lower solubility; ethanol solubility, comparison ([2]; ethanol, FIG. 1B): less than UAK"
C[C@@H]1CC[C@]2(C(=O)O)CC[C@]3(C)C(=CCC4[C@@]5(C)CC[C@H](O)C(C)(C)C5CC[C@]43C)C2[C@H]1C (some centres unmarked) [Ursolic acid],,,pKa of carboxylic acid [3]: 4.7; oral bioavailability [4]: less than 1%; solubility in water [5]: less than 1 μg/mL
